Measurements from patent publication US8207345B2, “Tetrahydroquinolines for use as modulators of the mitotic motor protein Eg5” (Merck Patent GmbH, priority 2005, dated 2012).

System: cells
Experiment: cell cycle effect (G2/M), appended experiments
Assay type: cell-based

N=C(N)c1ccc(OCCCCCOc2ccc(C(=N)N)cc2)cc1 [pentamidine]
maintain cells in the G2/M cell cycle: maintain cells in the G2/M cell cycle
